Tests used:
AR-VP16 [1] = molecular target: T1, AR-VP16 (Homo sapiens, UniProt P10275); assay: AR-VP16 DNA Binding Assay, agonist mode (HepG2 cells); assay type: cell-based; details: Emax >20x DMSO control = agonist
T1 sequence (P10275 560-920 limits assumed): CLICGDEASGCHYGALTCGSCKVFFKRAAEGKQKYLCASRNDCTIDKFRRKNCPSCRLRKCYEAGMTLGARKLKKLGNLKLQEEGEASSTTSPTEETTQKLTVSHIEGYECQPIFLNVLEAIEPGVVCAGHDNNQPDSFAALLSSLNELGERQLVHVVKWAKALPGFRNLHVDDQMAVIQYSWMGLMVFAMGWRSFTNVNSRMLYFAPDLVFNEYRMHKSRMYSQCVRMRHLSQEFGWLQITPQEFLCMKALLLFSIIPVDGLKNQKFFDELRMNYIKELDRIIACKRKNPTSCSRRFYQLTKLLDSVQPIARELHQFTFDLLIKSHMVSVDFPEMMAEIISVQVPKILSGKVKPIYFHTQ

AR-VP16 [2] = molecular target: T1, AR-VP16; assay: AR-VP16 DNA Binding Assay, antagonist mode (HepG2 cells, 0.1 nM R1881); assay type: cell-based
In short: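 Transfected HepG2 cells expressing AR-VP16 received serially diluted compound in charcoal-stripped-serum RPMI the day after transfection, with 0.1 nM R1881 (final) added only for antagonist testing. After 48 h, cells were lysed for measurement.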

Compound	ARVP16 DNA Binding Assay (Agonist mode): Agonist? (AR-VP16 [1])	IC50 (AR-VP16 [2])
Cc1cc(N2C(=O)C(C)(C)N(c3ccc(O)cc3)C2=S)cnc1C#N [Compound 101, 5-(3-(4-Hydroxyphenyl)-4,4-dimethyl-5-oxo-2-thioxoimidazolidin-1-yl)-3-methylpicolinonitrile]	No (Agonist defined as a compound whose Emax in the ARVP16 DNA Binding Assay (Agonist mode) is >20x DMSO control)	> 1000 nM
CNC(=O)c1ccc(N2C(=S)N(c3cnc(C#N)c(C)c3)C(=O)C23CCC3)c(F)c1 [Compound 104, 4-(7-(6-Cyano-5-methylpyridin-3-yl)-8-oxo-6-thioxo-5,7-diazaspiro[3.4]octan-5-yl)-3-fluoro-N-methylbenzamide]	No (Agonist defined as a compound whose Emax in the ARVP16 DNA Binding Assay (Agonist mode) is >20x DMSO control)	< 1000 nM
Cc1cc(N2C(=O)C3(CCC3)N(c3ccc(-c4cncc(F)c4)cc3)C2=S)cnc1C#N [Compound 105, 5-(5-(4-(5-Fluoropyridin-3-yl)phenyl)-8-oxo-6-thioxo-5,7-diazaspiro[3.4]octan-7-yl)-3-methylpicolinonitrile]	No (Agonist defined as a compound whose Emax in the ARVP16 DNA Binding Assay (Agonist mode) is >20x DMSO control)	< 1000 nM
CNC(=O)c1ccc(N2C(=S)N(c3cnc(C#N)c(C)c3)C(=O)C23CCC3)cc1C [Compound 106, 4-(7-(6-Cyano-5-methylpyridin-3-yl)-8-oxo-6-thioxo-5,7-diazaspiro[3.4]octan-5-yl)-N,2-dimethylbenzamide]	No (Agonist defined as a compound whose Emax in the ARVP16 DNA Binding Assay (Agonist mode) is >20x DMSO control)	< 1000 nM
CNC(=O)c1ccc(N2C(=S)N(c3cnc(C#N)c(C)c3)C(=O)C23CCC3)cc1OC [Compound 107, 4-(7-(6-Cyano-5-methylpyridin-3-yl)-8-oxo-6-thioxo-5,7-diazaspiro[3.4]octan-5-yl)-2-methoxy-N-methylbenzamide]	No (Agonist defined as a compound whose Emax in the ARVP16 DNA Binding Assay (Agonist mode) is >20x DMSO control)	< 1000 nM
Cc1cc(N2C(=O)C3(CCC3)N(c3ccc4c(c3)CNC4=O)C2=S)cnc1C#N [Compound 111, 3-Methyl-5-(8-oxo-5-(1-oxoisoindolin-5-yl)-6-thioxo-5,7-diazaspiro[3.4]octan-7-yl)picolinonitrile]	No (Agonist defined as a compound whose Emax in the ARVP16 DNA Binding Assay (Agonist mode) is >20x DMSO control)	> 1000 nM
CNC(=O)c1ccc(N2C(=S)N(c3cnc(C#N)c(C(F)F)c3)C(=O)C23CCC3)cc1F [Compound 113, 4-(7-(6-Cyano-5-(difluoromethyl)pyridin-3-yl)-8-oxo-6-thioxo-5,7-diazaspiro[3.4]octan-5-yl)-2-fluoro-N-methylbenzamide]	No (Agonist defined as a compound whose Emax in the ARVP16 DNA Binding Assay (Agonist mode) is >20x DMSO control)	< 1000 nM
N#Cc1ncc(N2C(=O)C3(CCC3)N(c3ccc(C4CCOCC4)cc3)C2=S)cc1C(F)(F)F [Compound 115, 5-(8-Oxo-5-(4-(tetrahydro-2H-pyran-4-yl)phenyl)-6-thioxo-5,7-diazaspiro[3.4]octan-7-yl)-3-(trifluoromethyl)picolinonitrile]	No (Agonist defined as a compound whose Emax in the ARVP16 DNA Binding Assay (Agonist mode) is >20x DMSO control)	< 1000 nM
Cc1cc(N2C(=O)C3(CCC3)N(c3ccc(-c4ccco4)cc3)C2=S)cnc1C#N [Compound 116, 5-(5-(4-(Furan-2-yl)phenyl)-8-oxo-6-thioxo-5,7-diazaspiro[3.4]octan-7-yl)-3-methylpicolinonitrile]	No (Agonist defined as a compound whose Emax in the ARVP16 DNA Binding Assay (Agonist mode) is >20x DMSO control)	< 1000 nM
